Structures are written as SMILES. Some results are limits rather than exact numbers.

Experimental findings from patent US11851426B2, “Bicyclic amines as CDK2 inhibitors” (Incyte Corporation, priority 2019, dated 2023) are described below.

The target in this assay is CDK2/Cyclin E1 (Homo sapiens (Human), UniProt P24941). In words: CDK2/Cyclin E1 HTRF enzyme activity assay. In kind it is biochemical. Particulars: 1 mM ATP; CDK2/Cyclin E1 0.25 nM; 60 minutes at room temperature. Here is the method: Example A. CDK2/Cyclin E1 HTRF Enzyme Activity Assay
CDK2/Cyclin E1 enzyme activity assays utilize full-length human CDK2 co-expressed as N-terminal GST-tagged protein with FLAG-Cyclin E1 in a baculovirus expression system (Carna Product Number 04-165). Assays were conducted in white 384-well polystyrene plates in a final reaction volume of 8 μL. CDK2/Cyclin E1 (0.25 nM) was incubated with the compounds of the Examples (40 nL serially diluted in DMSO) in the presence of ATP (50 μM or 1 mM) and 50 nM ULight™-labeled eIF4E-binding protein 1 (THR37/46) peptide (PerkinElmer) in assay buffer (containing 50 mM HEPES pH 7.5, 1 mM EGTA, 10 mM MgCl2, 2 mM DTT, 0.05 mg/mL BSA, and 0.01% Tween 20) for 60 minutes at room temperature. The reactions were stopped by the addition of EDTA and Europium-labeled anti-phospho-4E-BP1 antibody (PerkinElmer), for a final concentration of 15 mM and 1.5 nM, respectively. HTRF signals were read after 1 hour at room temperature on a PHERAstar FS plate reader (BMG Labtech). Data was analyzed with IDBS XLFit and GraphPad Prism 5.0 software using a three or four parameter dose response curve to determine IC50 for each compound.
(In TR-FRET formats the signal depends on donor and acceptor labels being close together.)
With `CCOc1c(-c2cn[nH]c2)ccn2nc(N[C@H]3CCN(S(=O)(=O)CCCN4CCCC4)C[C@H]3C)nc12` [Example 29, 8-ethoxy-N-((3R,4S)-3-methyl-1-((3-(pyrrolidin-1-yl)propyl)sulfonyl)piperidin-4-yl)-7-(1H-pyrazol-4-yl)-[1,2,4]triazolo[1,5-a]pyridin-2-amine], the IC50 (commonly the midpoint of a concentration-inhibition curve) was no more than 20 nM.
Under `CS(=O)(=O)N1CCC(Nc2nc3c(N4CCC(C(F)(F)F)CC4)c(-c4cn[nH]c4)ccn3n2)CC1` [Example 30, N-(1-(methylsulfonyl)piperidin-4-yl)-7-(1H-pyrazol-4-yl)-8-(4-(trifluoromethyl)piperidin-1-yl)-[1,2,4]triazolo[1,5-a]pyridin-2-amine] stands no more than 20 nM; under `CS(=O)(=O)N1CCC(Nc2nc3c(N4CCCC(F)C4)c(-c4cn[nH]c4)ccn3n2)CC1` (stereo not drawn) [Example 31, 8-(3-fluoropiperidin-1-yl)-N-(1-(methylsulfonyl)piperidin-4-yl)-7-(1H-pyrazol-4-yl)-[1,2,4]triazolo[1,5-a]pyridin-2-amine], no more than 20 nM.
With `CCOc1c(-c2cn[nH]c2)ncn2nc(NC3CCN(S(C)(=O)=O)CC3)nc12` [Example 32, 8-Ethoxy-N-(1-(methylsulfonyl)piperidin-4-yl)-7-(1H-pyrazol-4-yl)-[1,2,4]triazolo[1,5-c]pyrimidin-2-amine] the figure was no more than 20 nM; with `CC(C)Oc1c(-c2cn[nH]c2)ncn2nc(N[C@H]3CCN(S(C)(=O)=O)C[C@H]3C)nc12` [Example 33, 8-isopropoxy-N-((3R,4S)-3-methyl-1-(methylsulfonyl)piperidin-4-yl)-7-(1H-pyrazol-4-yl)-[1,2,4]triazolo[1,5-c]pyrimidin-2-amine], no more than 20 nM; with `CC1CCN(c2c(-c3cn[nH]c3)ncn3nc(NC4CCN(S(C)(=O)=O)CC4)nc23)CC1` [Example 34, 8-(4-methylpiperidin-1-yl)-N-(1-(methylsulfonyl)piperidin-4-yl)-7-(1H-pyrazol-4-yl)-[1,2,4]triazolo[1,5-c]pyrimidin-2-amine], no more than 20 nM.
With `CS(=O)(=O)N1CCC(Nc2nc3c(-c4cccc(C(F)(F)F)c4)c(-c4cn[nH]c4)ncn3n2)CC1` [Example 35, N-(1-(methylsulfonyl)piperidin-4-yl)-7-(1H-pyrazol-4-yl)-8-(3-(trifluoromethyl)phenyl)-[1,2,4]triazolo[1,5-c]pyrimidin-2-amine] the figure was no more than 20 nM; with `CS(=O)(=O)N1CCC(Nc2nc3c(-c4ccc(C#N)c(F)c4)c(-c4cn[nH]c4)ncn3n2)CC1` [Example 36, 2-fluoro-4-(2-((1-(methylsulfonyl)piperidin-4-yl)amino)-7-(1H-pyrazol-4-yl)-[1,2,4]triazolo[1,5-c]pyrimidin-8-yl)benzonitrile], no more than 20 nM; with `CCCc1c(-c2cn[nH]c2)ccn2nc(NC3CCN(S(C)(=O)=O)CC3)nc12` [Example 37, N-(1-(methylsulfonyl)piperidin-4-yl)-8-propyl-7-(1H-pyrazol-4-yl)-[1.2.4]triazolo[1,5-a]pyridin-2-amine], no more than 20 nM.
On to `CC(C)Oc1c(-c2cn[nH]c2)ncn2nc(N[C@H]3CCN(S(=O)(=O)CCN4CCCC4)C[C@H]3C)nc12` [Example 38, 8-isopropoxy-N-((3R,4S)-3-methyl-1-((2-(pyrrolidin-1-yl)ethyl)sulfonyl)piperidin-4-yl)-7-(1H-pyrazol-4-yl)-[1,2,4]triazolo[1,5-c]pyrimidin-2-amine], for which the IC50 is no more than 20 nM.
In turn, `C[C@@H]1CN(S(C)(=O)=O)CC[C@@H]1Nc1nc2c(OC3CCC(F)(F)CC3)c(-c3cn[nH]c3)ccn2n1` [Example 39, 8-((4,4-difluorocyclohexyl)oxy)-N-((3R,4S)-3-methyl-1-(methylsulfonyl)piperidin-4-yl)-7-(1H-pyrazol-4-yl)-[1,2,4]triazolo[1,5-a]pyridin-2-amine] showed an IC50 of no more than 20 nM.
`C[C@@H]1CN(S(C)(=O)=O)CC[C@@H]1Nc1nc2c(OC3CCOC3)c(-c3cn[nH]c3)ccn2n1` (stereo partly drawn) [Example 40, N-((3R,4S)-3-methyl-1-(methylsulfonyl)piperidin-4-yl)-7-(1H-pyrazol-4-yl)-8-((tetrahydrofuran-3-yl)oxy)-[1,2,4]triazolo[1,5-a]pyridin-2-amine] returned an IC50 of no more than 20 nM.
With `[2H]C([2H])([2H])C([2H])([2H])Oc1c(-c2cn[nH]c2)ccn2nc(N[C@H]3CCN(S(C)(=O)=O)C[C@H]3C)nc12` [Example 41, 8-(ethoxy-d5)-N-((3R,4S)-3-methyl-1-(methylsulfonyl)piperidin-4-yl)-7-(1H-pyrazol-4-yl)-[1,2,4]triazolo[1,5-a]pyridin-2-amine] the figure was no more than 20 nM.
As for `C[C@@H]1CN(S(C)(=O)=O)CC[C@@H]1Nc1nc2c(OC3CCOCC3)c(-c3cn[nH]c3)ccn2n1` [Example 42, N-((3R,4S)-3-methyl-1-(methylsulfonyl)piperidin-4-yl)-7-(1H-pyrazol-4-yl)-8-((tetrahydro-2H-pyran-4-yl)oxy)-[1,2,4]triazolo[1,5-a]pyridin-2-amine], the IC50 is no more than 20 nM.
Under `CC(C)Oc1c(-c2cn[nH]c2)ccn2nc(N[C@H]3CCN(S(C)(=O)=O)C[C@H]3C)nc12` [Example 43, 8-isopropoxy-N-((3R,4S)-3-methyl-1-(methylsulfonyl)piperidin-4-yl)-7-(1H-pyrazol-4-yl)-[1,2,4]triazolo[1,5-a]pyridin-2-amine] stands no more than 20 nM; under `CC(C)COc1c(-c2cn[nH]c2)ncn2nc(NC3CCN(S(C)(=O)=O)CC3)nc12` [Example 44, 8-Isobutoxy-N-(1-(methylsulfonyl)piperidin-4-yl)-7-(1H-pyrazol-4-yl)-[1,2,4]triazolo[1,5-c]pyrimidin-2-amine], no more than 20 nM.
Under `CS(=O)(=O)N1CCC(Nc2nc3c(OCC(F)F)c(-c4cn[nH]c4)ncn3n2)CC1` [Example 45, 8-(2,2-difluoroethoxy)-N-(1-(methylsulfonyl)piperidin-4-yl)-7-(1H-pyrazol-4-yl)-[1,2,4]triazolo[1,5-c]pyrimidin-2-amine] stands no more than 20 nM.
With `CS(=O)(=O)N1CCC(Nc2nc3c(OCCC(F)(F)F)c(-c4cn[nH]c4)ncn3n2)CC1` [Example 46, N-(1-(Methylsulfonyl)piperidin-4-yl)-7-(1H-pyrazol-4-yl)-8-(3,3,3-trifluoropropoxy)-[1,2,4]triazolo[1,5-c]pyrimidin-2-amine] the figure was no more than 20 nM.
`CCCCOc1c(-c2cn[nH]c2)ncn2nc(NC3CCN(S(C)(=O)=O)CC3)nc12` [Example 47, 8-Butoxy-N-(1-(methylsulfonyl)piperidin-4-yl)-7-(1H-pyrazol-4-yl)-[1.2.4]triazolo[1,5-c]pyrimidin-2-amine] had an IC50 of no more than 20 nM.
On to `CCCOc1c(-c2cn[nH]c2)ncn2nc(NC3CCN(S(C)(=O)=O)CC3)nc12` [Example 48, N-(1-(Methylsulfonyl)piperidin-4-yl)-8-propoxy-7-(1H-pyrazol-4-yl)-[1.2.4]triazolo[1,5-c]pyrimidin-2-amine], for which the IC50 was no more than 20 nM.
For `CS(=O)(=O)N1CCC(Nc2nc3c(N4CCCCC4)c(-c4cn[nH]c4)ncn3n2)CC1` [Example 49, N-(1-(Methylsulfonyl)piperidin-4-yl)-8-(piperidin-1-yl)-7-(1H-pyrazol-4-yl)-[1,2,4]triazolo[1,5-c]pyrimidin-2-amine], the IC50 is no more than 20 nM.
Under `CC1CN(S(C)(=O)=O)CCC1Nc1nc2c(N3CCCCC3)c(-c3cn[nH]c3)ncn2n1` (stereo not drawn) [Example 50, N-(3-Methyl-1-(methylsulfonyl)piperidin-4-yl)-8-(piperidin-1-yl)-7-(1H-pyrazol-4-yl)-[1,2,4]triazolo[1,5-c]pyrimidin-2-amine] stands no more than 20 nM; under `COCCN1CCN(c2c(-c3cn[nH]c3)ncn3nc(NC4CCN(S(C)(=O)=O)CC4)nc23)CC1` [Example 51, 8-(4-(2-Methoxyethyl)piperazin-1-yl)-N-(1-(methylsulfonyl)piperidin-4-yl)-7-(1H-pyrazol-4-yl)-[1,2,4]triazolo[1,5-c]pyrimidin-2-amine], no more than 20 nM.
Under `CS(=O)(=O)N1CCC(Nc2nc3c(N4CCCC4)c(-c4cn[nH]c4)ncn3n2)CC1` [Example 52, N-(1-(Methylsulfonyl)piperidin-4-yl)-7-(1H-pyrazol-4-yl)-8-(pyrrolidin-1-yl)-[1,2,4]triazolo[1,5-c]pyrimidin-2-amine] stands no more than 20 nM.
With `CC(C)Oc1c(-c2cn[nH]c2)ncn2nc(N[C@H]3CCN(S(=O)(=O)C4CC4)C[C@H]3C)nc12` [Example 53, N-((3R,4S)-1-(Cyclopropylsulfonyl)-3-methylpiperidin-4-yl)-8-isopropoxy-7-(1H-pyrazol-4-yl)-[1,2,4]triazolo[1,5-c]pyrimidin-2-amine] the figure was no more than 20 nM.
The compound `CCS(=O)(=O)N1CC[C@H](Nc2nc3c(OC(C)C)c(-c4cn[nH]c4)ncn3n2)[C@H](C)C1` [Example 54, N-((3R,4S)-1-(Ethylsulfonyl)-3-methylpiperidin-4-yl)-8-isopropoxy-7-(1H-pyrazol-4-yl)-[1,2,4]triazolo[1,5-c]pyrimidin-2-amine] registered an IC50 of no more than 20 nM.
Under `CCN(C)CCCS(=O)(=O)N1CC[C@H](Nc2nc3c(OC(C)C)c(-c4cn[nH]c4)ncn3n2)[C@H](C)C1` [Example 55, N-((3R,4S)-1-((3-(Ethyl(methyl)amino)propyl)sulfonyl)-3-methylpiperidin-4-yl)-8-isopropoxy-7-(1H-pyrazol-4-yl)-[1,2,4]triazolo[1,5-c]pyrimidin-2-amine] stands no more than 20 nM.
